Patent US6376497B1, “Antifungal azole derivatives having a fluorinated vinyl group and process for preparing same” (Korea Research Institute of Chemical Technology, priority 1999, dated 2002)

Experiments:
Experiment in all cases: In vitro antifungal activity, microbroth dilution MIC
Type in all cases: cell-based
[1] = tested on: Trichophyton mentagrophytes B. 32663; details: T. mentagrophytes B. 32663, RPMI-1640, 35° C., 4 to 48 hours
How it was run: (§1)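 Broth microdilution adapted from NCCLS M27, in RPMI-1640 with 0.165 M MOPS, pH 7.0. Yeast or mould inoculum at 2×10^3 CFU/ml was mixed 1:1 with DMSO-derived compound solutions (200 to 0.10 μg/ml before mixing) and incubated at 35 °C for 4 to 48 h. MIC was the concentration showing no growth.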

[2] = tested on: Aspergillus furnigatus B. 19119; details: A furnigatus B. 19119, RPMI-1640, 35° C., 4 to 48 hours
How it was run: as §1

[3] = tested on: Torulopsis glabrata B. 16205; details: T. glabrata B. 16205, RPMI-1640, 35° C., 4 to 48 hours
How it was run: as §1

[4] = tested on: Candida parapsitosis A. 7330; details: C. parapsitosis A. 7330, RPMI-1640, 35° C., 4 to 48 hours
How it was run: as §1

[5] = tested on: Candida tropicalis A. 13803; details: C. tropicalis A. 13803, RPMI-1640, 35° C., 4 to 48 hours
How it was run: as §1

[6] = tested on: Cryptococcus neoformans B. 42419; details: Cry. neoformans B. 42419, RPMI-1640, 35° C., 4 to 48 hours
How it was run: as §1

[7] = tested on: Cryptococcus neoformans IFM. 40092; details: Cry. neoformans IFM. 40092, RPMI-1640, 35° C., 4 to 48 hours
How it was run: as §1

[8] = tested on: Aspergillus niger A. 16404; details: A. niger A. 16404, RPMI-1640, 35° C., 4 to 48 hours
How it was run: as §1

[9] = tested on: Candida albicans A. 10231; details: C. albicans A. 10231, RPMI-1640, 35° C., 4 to 48 hours
How it was run: as §1

[10] = tested on: Trichophyton mentagrophytes A. 9129; details: T. mentagrophytes A. 9129, RPMI-1640, 35° C., 4 to 48 hours
How it was run: as §1

Candida krusei K. 11655 = details: C. krusei K. 11655, RPMI-1640, 35° C., 4 to 48 hours
How it was run: as §1

[11] = tested on: Candida pseudotropicalis K. 11658; details: C. pseudotropicalis K. 11658, RPMI-1640, 35° C., 4 to 48 hours
How it was run: as §1

[12] = tested on: Candida albicans IFO. 1385; details: C. albicans IFO. 1385, RPMI-1640, 35° C., 4 to 48 hours
How it was run: as §1

[13] = tested on: Cryptococcus neoformans A. 34144; details: Cry. neoformans A. 34144, RPMI-1640, 35° C., 4 to 48 hours
How it was run: as §1

Candida albicans C1-2 = details: C. albicans C1-2, RPMI-1640, 35° C., 4 to 48 hours
How it was run: as §1

| Compound | Minimal inhibitory concentration (MIC) [1] | Minimal inhibitory concentration (MIC) [2] | Minimal inhibitory concentration (MIC) [3] | Minimal inhibitory concentration (MIC) [4] | Minimal inhibitory concentration (MIC) [5] | Minimal inhibitory concentration (MIC) [6] | Minimal inhibitory concentration (MIC) [7] | Minimal inhibitory concentration (MIC) [8] | Minimal inhibitory concentration (MIC) [9] | Minimal inhibitory concentration (MIC) [10] | Minimal inhibitory concentration (MIC) (Candida krusei K. 11655) | Minimal inhibitory concentration (MIC) [11] | Minimal inhibitory concentration (MIC) [12] | Minimal inhibitory concentration (MIC) [13] | Minimal inhibitory concentration (MIC) (Candida albicans C1-2) |
| --- | --- | --- | --- | --- | --- | --- | --- | --- | --- | --- | --- | --- | --- | --- | --- |
| COc1cccc(C(=C(F)OCC2COC(Cn3ccnc3)(c3ccc(F)cc3F)O2)C(F)(F)F)c1 (mixture of isomers) [Ex. 60] | 3.13 µg/mL | 12.5 µg/mL | 6.25 µg/mL | >100 µg/mL | 100 µg/mL | 1.56 µg/mL | 0.20 µg/mL | 100 µg/mL | 12.5 µg/mL | 6.25 µg/mL | >100 µg/mL | 100 µg/mL | 0.78 µg/mL | 1.56 µg/mL | 12.5 µg/mL |
| COc1ccc(C(=C(F)OCC2COC(Cn3ccnc3)(c3ccc(F)cc3F)O2)C(F)(F)F)cc1 (mixture of isomers) [Ex. 61] | 3.13 µg/mL | 12.5 µg/mL | 6.25 µg/mL | >100 µg/mL | 100 µg/mL | 1.56 µg/mL | 0.20 µg/mL | 100 µg/mL | 12.5 µg/mL | 6.25 µg/mL | >100 µg/mL | 100 µg/mL | 0.78 µg/mL | 1.56 µg/mL | 12.5 µg/mL |
| FC(OCC1COC(Cn2ccnc2)(c2ccc(F)cc2F)O1)=C(c1ccc2c(c1)OCO2)C(F)(F)F (mixture of isomers) [Ex. 62] | 3.13 µg/mL | 25.0 µg/mL | 3.13 µg/mL | >100 µg/mL | 100 µg/mL | 0.78 µg/mL | 0.20 µg/mL | >100 µg/mL | 12.5 µg/mL | 12.5 µg/mL | 100 µg/mL | 50.0 µg/mL | 0.78 µg/mL | 0.78 µg/mL | 12.5 µg/mL |
| FC(OCC1COC(Cn2ccnc2)(c2ccc(F)cc2F)O1)=C(c1ccc(Oc2ccccc2)cc1)C(F)(F)F (mixture of isomers) [Ex. 63] | 6.25 µg/mL | >100 µg/mL | 25.0 µg/mL | >100 µg/mL | >100 µg/mL | 1.56 µg/mL | 0.39 µg/mL | >100 µg/mL | 25.0 µg/mL | 25.0 µg/mL | >100 µg/mL | >100 µg/mL | 3.13 µg/mL | 1.56 µg/mL | 50.0 µg/mL |
| FC(OCC1COC(Cn2ccnc2)(c2ccc(F)cc2F)O1)=C(c1cccc(Cl)c1)C(F)(F)F (mixture of isomers) [Ex. 64] | 1.56 µg/mL | 3.13 µg/mL | 6.25 µg/mL | 100 µg/mL | 100 µg/mL | 1.56 µg/mL | 0.20 µg/mL | 100 µg/mL | 12.5 µg/mL | 6.25 µg/mL | 50.0 µg/mL | 25.0 µg/mL | 0.78 µg/mL | 1.56 µg/mL | 12.5 µg/mL |
| FC(OCC1COC(Cn2ccnc2)(c2ccc(F)cc2F)O1)=C(c1cccc(F)c1)C(F)(F)F (mixture of isomers) [Ex. 65] | 1.53 µg/mL | 3.13 µg/mL | 6.25 µg/mL | >100 µg/mL | 50.0 µg/mL | 1.56 µg/mL | ≦0.10 μg/ml | 12.5 µg/mL | 12.5 µg/mL | 3.13 µg/mL | 100 µg/mL | 25.0 µg/mL | 0.78 µg/mL | 1.56 µg/mL | 12.5 µg/mL |
| FC(OCC1COC(Cn2ccnc2)(c2ccc(F)cc2F)O1)=C(c1ccc(F)cc1)C(F)(F)F (mixture of isomers) [Ex. 66] | 3.13 µg/mL | 6.25 µg/mL | 6.25 µg/mL | >100 µg/mL | 100 µg/mL | 0.39 µg/mL | ≦0.10 μg/ml | >100 µg/mL | 12.5 µg/mL | 6.25 µg/mL | 100 µg/mL | 50.0 µg/mL | 0.39 µg/mL | 0.78 µg/mL | 12.5 µg/mL |
